Measured values taken from PubChem BioAssay (NCI).
Several values for one entry are separate records, joined by “and”; a condition that tells them apart may be missing. Equal values may be shown once.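 48-hour exposure; five concentrations; linearly interpolated endpoints. GI50: concentration for 50% inhibition of growth. TGI is the concentration that stops growth completely.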

Key:
Experiment in all cases: inhibition of tumour cell growth, NCI panel, 48 h
[1] = system: MDA-MB-435
[2] = system: MCF7 breast
[3] = system: HS 578T breast
[4] = system: NCI-H226 lung
[5] = system: UACC-257 melanoma
[6] = system: NCI/ADR-RES ovarian
[7] = system: DU-145 prostate
[8] = system: HOP-92 NSCLC
[9] = system: NCI-H23 lung
[10] = system: MDA-MB-231 breast
[11] = system: PC-3 prostate
[12] = system: T-47D breast
[13] = system: BT-549 breast
[14] = system: HCT-116 colon
[15] = system: OVCAR-5 ovarian
[16] = system: SNB-75 CNS
[17] = system: SK-MEL-5 melanoma
[18] = system: NCI-H460 lung
[19] = system: NCI-H522 lung
[20] = system: K-562 leukemia
[21] = system: HT29 colon
[22] = system: COLO 205 colon
[23] = system: SK-MEL-28 melanoma
[24] = system: U251 CNS
[25] = system: KM12 colon
[26] = system: CCRF-CEM leukemia
[27] = system: RPMI-8226 leukemia
[28] = system: OVCAR-8 ovarian
[29] = system: HCT-15 colon
[30] = system: TK-10 renal
[31] = system: HL-60(TB) leukemia
[32] = system: CAKI-1 renal
[33] = system: SW-620 colon
[34] = system: IGROV1 ovarian
[35] = system: ACHN renal
[36] = system: SK-MEL-2 melanoma
[37] = system: M14 melanoma
[38] = system: SR leukemia
[39] = system: LOX IMVI melanoma
[40] = system: SNB-19 CNS
[41] = system: HOP-62 NSCLC
[42] = system: OVCAR-3 ovarian
[43] = system: OVCAR-4 ovarian
[44] = system: SF-539 CNS
[45] = system: HCC-2998 colon
[46] = system: EKVX NSCLC
[47] = system: SN12C renal
[48] = system: UACC-62 melanoma
[49] = system: RXF 393 renal
[50] = system: SF-268 CNS
[51] = system: 786-0 renal
[52] = system: UO-31 renal
[53] = system: SK-OV-3 ovarian
[54] = system: SF-295 CNS
[55] = system: MOLT-4 leukemia
[56] = system: MALME-3M melanoma
[57] = system: A549 NSCLC

Structure (SMILES): C/C=C/CC(C)C(O)C1C(=O)NC(CC)C(=O)N(C)CC(=O)N(C)C(CC(C)C)C(=O)NC(C(C)C)C(=O)N(C)C(CC(C)C)C(=O)NC(C)C(=O)NC(C)C(=O)N(C)C(CC(C)C)C(=O)N(C)C(CC(C)C)C(=O)N(C)C(C(C)C)C(=O)N1C (centres undefined)
- GI50 [1]: 0.609 µM
- TGI [1]: 4.62 µM
- GI50 [2]: 2.71 µM
- TGI [2]: > 32.5 µM
- GI50 [3]: 3.36 µM
- TGI [3]: 28.2 µM
- GI50 [4]: 2290 nM
- TGI [4]: 6.66 µM and 13.8 µM
- GI50 [5]: 0.747 µM
- TGI [5]: 5.57 µM and 8.67 µM
- GI50 [6]: 1.44 µM
- TGI [6]: > 32.5 µM
- GI50 [7]: 1.43 µM
- TGI [7]: > 32.5 µM
- GI50 [8]: 1090 nM
- TGI [8]: 9.02 µM and 14.8 µM
- GI50 [9]: 1200 nM
- TGI [9]: > 32.5 µM and 28.6 µM
- GI50 [10]: 3.79 µM
- TGI [10]: 9.57 µM
- GI50 [11]: 0.97 µM
- TGI [11]: > 32.5 µM
- GI50 [12]: 0.842 µM
- TGI [12]: 5.32 µM
- GI50 [13]: 2.02 µM
- TGI [13]: 6.92 µM

Structure (SMILES): O=C(O)c1cc2cc(OCc3ccccc3)c(OCc3ccccc3)cc2[nH]1
- GI50 [14]: 17.1 µM
- TGI [14]: 30.8 µM
- GI50 [1]: 19.2 µM
- TGI [1]: 47.9 µM
- GI50 [15]: 29.1 µM
- TGI [15]: 87.9 µM
- GI50 [16]: 17.3 µM
- TGI [16]: 55.6 µM
- GI50 [17]: 20.1 µM
- TGI [17]: 47.3 µM
- GI50 [18]: 17.8 µM
- TGI [18]: 33.4 µM
- GI50 [19]: 24 µM
- TGI [19]: 62.2 µM
- GI50 [20]: 29.3 µM
- TGI [20]: > 100 µM
- GI50 [21]: 29.5 µM
- TGI [21]: 59.6 µM
- GI50 [2]: 21.8 µM
- TGI [2]: 55.1 µM
- GI50 [22]: 19.9 µM
- TGI [22]: 36.1 µM
- GI50 [23]: 19.5 µM
- TGI [23]: 43.2 µM
- GI50 [24]: 17.7 µM
- TGI [24]: 37 µM
- GI50 [3]: 22 µM
- TGI [3]: 64.5 µM
- GI50 [25]: 19.3 µM
- TGI [25]: 36.2 µM
- GI50 [26]: 33.6 µM
- TGI [26]: > 100 µM
- GI50 [27]: 23 µM
- TGI [27]: 68.4 µM
- GI50 [28]: 26.9 µM
- TGI [28]: 95.9 µM
- GI50 [4]: 17100 nM
- TGI [4]: 35.7 µM
- GI50 [5]: 22.2 µM
- TGI [5]: 62.9 µM
- GI50 [6]: 20.2 µM
- TGI [6]: 49.1 µM
- GI50 [29]: 16.3 µM
- TGI [29]: 36.4 µM
- GI50 [7]: 32.8 µM
- TGI [7]: > 100 µM
- GI50 [30]: 24 µM
- TGI [30]: 70.6 µM
- GI50 [31]: 22.9 µM
- TGI [31]: > 100 µM
- GI50 [32]: 20.7 µM
- TGI [32]: 51.3 µM
- GI50 [33]: 21.8 µM
- TGI [33]: 53.8 µM
- GI50 [34]: 24.9 µM
- TGI [34]: 54.2 µM
- GI50 [35]: 25.4 µM
- TGI [35]: 90.1 µM
- GI50 [36]: 21.4 µM
- TGI [36]: 44.7 µM
- GI50 [37]: 24.2 µM
- TGI [37]: 60.8 µM
- GI50 [38]: 21.8 µM
- TGI [38]: > 100 µM
- GI50 [39]: 18.1 µM
- TGI [39]: 35.4 µM
- GI50 [40]: 32.1 µM
- TGI [40]: > 100 µM
- GI50 [9]: 17200 nM
- TGI [9]: 38.1 µM
- GI50 [41]: 16.4 µM
- TGI [41]: 52.4 µM
- GI50 [42]: 17.3 µM
- TGI [42]: 31.6 µM
- GI50 [43]: 34.9 µM
- TGI [43]: > 100 µM
- GI50 [10]: 28.2 µM
- TGI [10]: 79 µM
- GI50 [44]: 19.9 µM
- TGI [44]: 44 µM
- GI50 [45]: 18.7 µM
- TGI [45]: 34.7 µM
- GI50 [11]: 23 µM
- TGI [11]: 68.5 µM
- GI50 [12]: 23.9 µM
- TGI [12]: > 100 µM
- GI50 [46]: 17.8 µM
- TGI [46]: 38.9 µM
- GI50 [47]: 33.1 µM
- TGI [47]: > 100 µM
- GI50 [48]: 17.5 µM
- TGI [48]: 34.5 µM
- GI50 [49]: 14.6 µM
- TGI [49]: 30.4 µM
- GI50 [50]: 26.4 µM
- TGI [50]: 79.7 µM
- GI50 [51]: 22.7 µM
- TGI [51]: 48.4 µM
- GI50 [52]: 13.8 µM
- TGI [52]: 27.6 µM
- GI50 [53]: 29.5 µM
- TGI [53]: > 100 µM
- GI50 [13]: 18.5 µM
- TGI [13]: 35.6 µM
- GI50 [54]: 17.6 µM
- TGI [54]: 40.1 µM
- GI50 [55]: 25 µM
- TGI [55]: > 100 µM
- GI50 [56]: 25.9 µM
- TGI [56]: 72.6 µM

Structure (SMILES): Cc1ccnc2[nH]c(-c3ccccc3)cc(=O)c12
- TGI [14]: 10.6 µM
- GI50 [15]: 20.9 µM
- TGI [15]: 51.2 µM
- TGI [18]: > 100 µM
- TGI [19]: 0.192 µM
- TGI [21]: 0.0259 µM
- TGI [23]: > 100 µM
- TGI [24]: > 100 µM
- TGI [3]: > 100 µM
- TGI [25]: 12.8 µM
- GI50 [27]: 0.0278 µM
- GI50 [28]: 0.0193 µM
- TGI [28]: > 100 µM
- GI50 [4]: 1460 nM
- TGI [4]: 5.96 µM and 32.5 µM
- TGI [7]: > 100 µM
- TGI [30]: 58.9 µM
- TGI [33]: > 100 µM
- GI50 [34]: 1.84 µM
- TGI [34]: > 100 µM
- TGI [35]: 63.3 µM
- TGI [8]: 93.7 µM
- GI50 [9]: 69.2 nM
- TGI [43]: > 100 µM
- GI50 [10]: 0.134 µM
- TGI [11]: > 100 µM
- TGI [12]: > 100 µM
- GI50 [46]: > 100 µM
- TGI [46]: > 100 µM
- GI50 [47]: 0.0399 µM
- TGI [49]: 0.0184 µM
- GI50 [50]: 0.0171 µM
- TGI [50]: > 100 µM
- TGI [51]: > 100 µM
- TGI [13]: > 100 µM
- TGI [57]: > 100 µM
- TGI [55]: > 100 µM
- TGI [56]: > 100 µM
